From patent US11667602B2, “Compounds and their use” (AstraZeneca AB, priority 2020, dated 2023)

Target: T1, human RXFP1 (Homo sapiens, UniProt Q9HBX9)
T1 sequence (Q9HBX9 1-757): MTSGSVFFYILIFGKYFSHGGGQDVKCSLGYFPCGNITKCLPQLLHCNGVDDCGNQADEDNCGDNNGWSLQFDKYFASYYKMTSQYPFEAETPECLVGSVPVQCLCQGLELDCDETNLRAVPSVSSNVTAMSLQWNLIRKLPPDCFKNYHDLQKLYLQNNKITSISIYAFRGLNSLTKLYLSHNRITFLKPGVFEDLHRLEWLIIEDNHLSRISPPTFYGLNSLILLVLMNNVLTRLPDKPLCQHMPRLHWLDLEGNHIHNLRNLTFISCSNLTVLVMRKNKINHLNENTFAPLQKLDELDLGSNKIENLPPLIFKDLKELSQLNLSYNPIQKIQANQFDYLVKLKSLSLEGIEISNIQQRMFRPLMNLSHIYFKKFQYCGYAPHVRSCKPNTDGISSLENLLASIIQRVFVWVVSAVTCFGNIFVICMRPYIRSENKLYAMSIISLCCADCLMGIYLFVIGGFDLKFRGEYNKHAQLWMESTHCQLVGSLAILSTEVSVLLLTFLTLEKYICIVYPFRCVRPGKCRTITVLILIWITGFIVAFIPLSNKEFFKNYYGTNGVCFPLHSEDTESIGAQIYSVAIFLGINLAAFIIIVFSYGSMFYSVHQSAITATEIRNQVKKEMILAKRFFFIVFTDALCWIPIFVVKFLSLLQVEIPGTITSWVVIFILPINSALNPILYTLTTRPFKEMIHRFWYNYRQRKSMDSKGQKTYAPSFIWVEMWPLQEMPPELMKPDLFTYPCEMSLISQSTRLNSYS
Assay: RXFP1 Hu cAMP (Test A)
Type: cell-based
Design: expressed in transfected cells; host or cells: Jump-In T-REx CHO-K1 cells (ThermoFisher), induced with 10 ng/ml doxycycline for 24 h
Conditions: RXFP1 Hu cAMP; for EC50: read-out: Test A EC50
How it was run: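 Cells: CHO-K1 stably carrying human RXFP1, expressed after 24 h 10 ng/ml doxycycline; 0.5 mM IBMX final, HTRF detection after 2 h at room temperature.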

SMILES | Test A Sinf [%] | EC50 [nM]
COc1cc(C#N)c(O[C@H]2CC[C@@](C)(C(=O)O)CC2)cc1C(=O)N[C@@H]1[C@H]2CC[C@H](C2)[C@@H]1C(=O)NC(C)(C)c1ccccc1 [Example 108] | 106 | 340
O=C(O)c1ccc(-c2cc(C(=O)N[C@H]3[C@@H](C(=O)Nc4cccc(S(=O)(=O)C(F)(F)F)c4)[C@@H]4C=C[C@H]3C4)c(F)cc2F)cc1 (racemic) [Example 306, rac-2′,4′-Difluoro-5′-(((1R,2R,3S,4S)-3-((3-((trifluoromethyl)sulfonyl)phenyl)carbamoyl)bicyclo[2.2.1]hept-5-en-2-yl)carbamoyl)-[1,1′-biphenyl]-4-carboxylic acid] | 73 | 
COc1cc(F)c(-c2ccc(C(=O)O)c(N(C)C)c2)cc1C(=O)N[C@@H]1[C@H]2CC[C@H](C2)[C@@H]1C(=O)Nc1cccc(S(=O)(=O)C(F)(F)F)c1 [Example 239] | 100 | 130
COc1cc(C#N)c(O[C@H]2CC[C@@](C)(C(=O)O)CC2)cc1C(=O)N[C@@H]1[C@H]2CC[C@H](C2)[C@@H]1C(=O)N[C@H](C)C1CCCCC1 [Example 120] | 95 | 
COc1ccc(Cc2ccccc2C(=O)O)cc1C(=O)N[C@H]1[C@@H](C(=O)Nc2cccc(S(=O)(=O)C(F)(F)F)c2)[C@@H]2C=C[C@H]1C2 (racemic) [Example 223, rac-2-(4-Methoxy-3-(((1R,2R,3S,4S)-3-((3-((trifluoromethyl)sulfonyl)phenyl)carbamoyl)bicyclo[2.2.1]hept-5-en-2-yl)carbamoyl)benzyl)benzoic acid] |  | > 40000
COc1cc(F)c(O[C@H]2CC[C@@](C)(C(=O)O)CC2)cc1C(=O)N[C@@H]1COCC[C@@H]1C(=O)Nc1cccc(S(=O)(=O)C(F)(F)F)c1 (racemic) [Example 340] | 100 | 1800
COc1cc(C#N)c(O[C@H]2CC[C@@](C)(C(=O)O)CC2)cc1C(=O)Nc1cc(C)ccc1C(=O)N[C@H]1CC[C@H](C)CC1 [Example 169] | 111 | 270
COc1cc(F)c(-c2cnc([C@@H]3C[C@H]3C(=O)O)cn2)cc1C(=O)N[C@@H]1[C@H]2CC[C@H](C2)[C@@H]1C(=O)Nc1cccc(S(=O)(=O)C(F)(F)F)c1 (single isomer, unassigned) [Example 264, (1R*,2R*)-2-(5-(2-Fluoro-4-methoxy-5-(((1S,2R,3S,4R)-3-((3-((trifluoromethyl)sulfonyl)phenyl)carbamoyl)bicyclo[2.2.1]heptan-2-yl)carbamoyl)phenyl)pyrazin-2-yl)cyclopropane-1-carboxylic acid] | 101 | 82
COc1cc(C#N)c(O[C@H]2CC[C@@](C)(C(=O)O)CC2)cc1C(=O)N[C@@H]1[C@H]2CC[C@H](C2)[C@@H]1C(=O)NCC(C)(C)CO [Example 138] | 100 | 1200
COc1cc(C#N)c(O[C@H]2CC[C@@](C)(C(=O)O)CC2)cc1C(=O)Nc1cc(Cl)ccc1C(=O)NC(C)(C)C1CC1 [Example 165] | 111 | 12

Other lines, results leading:

Test A Sinf [%] | EC50 [nM] | SMILES
102 | 86 | COc1cc(F)c(O[C@H]2CC[C@@](O)(C(=O)O)CC2)cc1C(=O)N[C@@H]1[C@@H]2CC[C@@H](C2)[C@@H]1C(=O)Nc1cccc(S(=O)(=O)C(F)(F)F)c1 (racemic) [Example 422, (1R,4r)-4-(2-Fluoro-4-methoxy-5-(((1RS,2RS,3SR,4SR)-3-((3-((trifluoromethyl)sulfonyl)phenyl)carbamoyl)bicyclo[2.2.1]heptan-2-yl)carbamoyl)phenoxy)-1-hydroxycyclohexane-1-carboxylic acid]
113 | 1800 | COc1cc(F)c(O[C@H]2CC[C@@](C)(C(=O)O)CC2)cc1C(=O)N[C@@H]1COCC[C@@H]1C(=O)Nc1ccc(F)c(S(F)(F)(F)(F)F)c1 (racemic) [Example 349]
107 | 320 | COc1cc(F)c(-c2ccc(O)c(C(=O)O)c2)cc1C(=O)N[C@@H]1[C@H]2CC[C@H](C2)[C@@H]1C(=O)Nc1cccc(S(=O)(=O)C(F)(F)F)c1 (racemic) [Example 316, rac-2′-Fluoro-4-hydroxy-4′-methoxy-5′-(((1R,2S,3R,4S)-3-((3-((trifluoromethyl)sulfonyl)phenyl)carbamoyl)bicyclo[2.2.1]heptan-2-yl)carbamoyl)-[1,1′-biphenyl]-3-carboxylic acid]
94 | 830 | COc1cc(F)c(OC2CCCC(C(=O)O)C2)cc1C(=O)N[C@@H]1[C@H]2CC[C@H](C2)[C@@H]1C(=O)Nc1cccc(S(=O)(=O)C(F)(F)F)c1 (single isomer, unassigned) [Example 447]
 | > 40000 | COc1cc(F)c(OCC23CCC(C(=O)O)(CC2)CC3)cc1C(=O)N[C@@H]1[C@H]2CC[C@H](C2)[C@@H]1C(=O)Nc1cccc(S(=O)(=O)C(F)(F)F)c1 [Example 441]
103 | 2.2 | COc1cc(F)c(O[C@H]2CC[C@@](CO)(C(=O)O)CC2)cc1C(=O)N[C@@H]1[C@@H]2CC[C@@H](C2)[C@@H]1C(=O)Nc1cccc(S(=O)(=O)C(F)(F)F)c1 (racemic) [Example 366]
88 | 450 | COc1cc(F)c(OC2CCC(C)(C(=O)O)CC2)cc1C(=O)NC1C2CCC(CC2)C1C(=O)NCC1(C)CCC1 (single isomer, unassigned) [Example 543, (1R,4s)-4-(2-Fluoro-4-methoxy-5-(((2S*,3R*)-3-(((1-methylcyclobutyl)methyl)carbamoyl)bicyclo[2.2.2]octan-2-yl)carbamoyl)phenoxy)-1-methylcyclohexane-1-carboxylic acid]
 | > 40000 | COc1cc(F)c(-c2ccc(C(=O)O)cc2)cc1C(=O)N[C@H]1[C@@H]2CC[C@@H](C2)[C@H]1C(=O)N[C@H]1CCCN(S(=O)(=O)C(F)(F)F)C1 (single isomer, unassigned) [Example 313, 2′-Fluoro-4′-methoxy-5′-(((1R*,2S*,3R*,4S*)-3-(((S)-1-((trifluoromethyl)sulfonyl)piperidin-3-yl)carbamoyl)bicyclo[2.2.1]heptan-2-yl)carbamoyl)-[1,1′-biphenyl]-4-carboxylic acid]
100 |  | CC1(CNC(=O)[C@H]2[C@@H]3CC[C@@H](C3)[C@H]2NC(=O)c2cc(O[C@H]3CC[C@@](C)(C(=O)O)CC3)c(F)cc2C#N)CCC1 [Example 377]
76 |  | COc1cc(F)c(OCc2cccc(C(C)(C)C(=O)O)c2)cc1C(=O)N[C@H]1[C@@H](C(=O)Nc2cccc(S(=O)(=O)C(F)(F)F)c2)[C@@H]2C=C[C@H]1C2 (racemic) [Example 454]
90 | 130 | COc1cc(C)c(O[C@H]2CC[C@@](C)(C(=O)O)CC2)cc1C(=O)N[C@@H]1[C@H]2CC[C@H](C2)[C@@H]1C(=O)NC12CC(F)(C1)C2 [Example 382]
97 | 530 | COc1cc(F)c(-c2ccc(OCC(=O)O)cc2)cc1C(=O)N[C@@H]1[C@H]2CC[C@H](C2)[C@@H]1C(=O)NCC(C)(C)C [Example 330, 2-((2′-Fluoro-4′-methoxy-5′-(((1S,2R,3S,4R)-3-(neopentylcarbamoyl)bicyclo[2.2.1]heptan-2-yl)carbamoyl)-[1,1′-biphenyl]-4-yl)oxy)acetic acid]
95 | 180 | COc1c(F)cc(O[C@H]2CC[C@@](C)(C(=O)O)CC2)cc1C(=O)N[C@@H]1[C@H]2CC[C@H](C2)[C@@H]1C(=O)NC12CC(F)(C1)C2 [Example 390]
